Test results reported in patent publication US20050064519A1, “Methods of using GST-Omega-2” (Pfizer Inc., priority 2003, published 2005).

What was measured:
[1] = target: T1, flag-tagged human GST-Omega-2 (Homo sapiens, UniProt Q9H4Y5); experiment: Diarylsulfonylurea (Compound 2) affinity column binding of GST-Omega-2 from HEK293 lysate, Western detection; set-up: expressed in transfected cells; conditions: 5 mM in buffer; Western blot of column fractions
T1 sequence (Q9H4Y5 1-242 limits assumed): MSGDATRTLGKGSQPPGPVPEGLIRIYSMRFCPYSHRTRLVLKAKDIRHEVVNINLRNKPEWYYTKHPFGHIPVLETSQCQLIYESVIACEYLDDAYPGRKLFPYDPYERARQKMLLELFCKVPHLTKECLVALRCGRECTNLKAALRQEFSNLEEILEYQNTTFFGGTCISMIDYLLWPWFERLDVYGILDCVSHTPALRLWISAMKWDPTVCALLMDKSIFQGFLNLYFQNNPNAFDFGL
Description: Human embryonic kidney (HEK293) cells were transfected with a pcDNA3.1 mammalian expression vector encoding FLAG-tagged human GST-Omega-2. Stable transfectants isolated by growth in the presence of G418 were subcloned and a high expressing colony was identified. Four confluent 10 cm dishes of this cell line were established after which the cells were harvested and then disrupted by nitrogen cavitation. The resulting cell lysate was clarified by centrifugation and the supernatant fraction was recovered and applied to an affinity column (1 ml) composed of 1-(1,2,3,5,6,7-Hexahydro-s-indacen-4-yl)-3-[2-fluoro-5-oxiranylbenzenesulfonyl]-urea (hereinafter referred to as Compound 2 as per U.S. Patent Publication 2002-0034764) attached to Thiolpropyl-Sepharose. Compound 2 is a diarylsulfonylurea that contains an epoxide group which can react to form a covalent linkage with Thiolpropyl-Sepharose. In some cases, the cell extract was applied to the column in a buffer containing 5 mM of a competitive inhibitor, 1-(1,2,3,5,6,7-Hexahydro-s-indacen-4-yl)-3-[4-(1-hydroxy-1-methylethyl)-furan-2-sulfonyl]-urea (hereinafter referred to as Compound 4 as per the '372 application). The column was washed with buffer then eluted with a denaturing detergent, sodium dodecyl sulfate (SDS). Individual 1 ml fractions were collected and aliquots of each were fractionated by SDS/PAGE. […]

[2] = target: T1, flag-tagged human GST-Omega-2; experiment: Competitive binding assay: incorporation of [14C]Compound 2 into GST-Omega-2 in infected SF9 cells; set-up: expressed in transfected cells; host or cells: SF9 insect cells, baculovirus infection (pFASTBAC-flag shuttle vector); conditions: 30 min preincubation, then 2 µM [14C]Compound 2 for 60 min, relative to control cultures
Method: Insect cells (SF9) were infected with a baculovirus construct encoding flag-tagged human GST-Omega-2 (see Example 5) and seeded into individual 10 cm dishes. After 48 hr of infection, media were removed and replaced with fresh medium (6 ml) containing 100, 200 or 400 μM Compound 4, 10 μM Compound 2, or neither compound. The cultures were incubated for 30 min at room temperature after which 2 µM [^14C]Compound 2 was introduced and the cultures were incubated for 60 min at room temperature. The cells then were harvested by centrifugation, washed with PBS to remove unbound radioactivity, and solubilized by detergent extraction. GST-Omega-2 was recovered by immunoprecipitation with anti-Flag M2 antibody, and the resulting immunoprecipitates were fractionated by SDS/PAGE; the dried gel subsequently was analyzed by phosphorimager analysis.

[3] = target: T1, flag-tagged human GST-Omega-2; experiment: Labeling of GST-Omega-2 by [14C]Compound 2 in infected SF9 cells, SDS/PAGE autoradiography; format: binding; set-up: expressed in transfected cells; host or cells: SF9 insect cells, baculovirus infection (pFASTBAC-flag shuttle vector); conditions: 60 min
Method: (§1) Insect cells (SF9) were infected with a baculovirus construct encoding flag-tagged human GST-Omega-2 (see Example 5) and seeded into individual 10 cm dishes. For comparison, SF9 cells also were infected with a baculovirus construct encoding IKK[…] (I-κB kinase-γ/NF-κB essential modulator (NEMO)). After 48 hr of infection, media were removed and replaced with fresh medium (6 ml) containing from 0.01 to 10 μM of [^14C]Compound 2. Cells were incubated with the radiolabeled diarylsulfonylurea for 60 min (at room temperature) and then collected by centrifugation and washed to remove unbound test agent. Each cell pellet then was suspended in 5 ml of PBS and divided into 2 fractions. Cells within one of these fractions (⅕ of the total) were collected by centrifugation and suspended in 150 µl of SDS/PAGE disaggregation buffer. Cells within the other fraction (⅘ of the total) were collected by centrifugation, solubilized by detergent extraction, and recombinant GST-Omega-2 was recovered by immunoprecipitation with the anti-Flag M2 antibody. Both the total cell lysates and the immunoprecipitates were fractionated by SDS/PAGE and the dried gels were analyzed by autoradiography.

[4] = target: T2, flag-tagged murine GST-Omega-2 (Mus musculus, UniProt Q8K2Q2); experiment: Labeling of murine GST-Omega-2 by [14C]Compound 2 in infected SF9 cells, SDS/PAGE autoradiography; format: binding; conditions: 60 min
T2 construct: expressed in transfected cells; host or cells: SF9 insect cells, baculovirus infection (pFASTBAC-flag shuttle vector)
T2 sequence (Q8K2Q2 1-248): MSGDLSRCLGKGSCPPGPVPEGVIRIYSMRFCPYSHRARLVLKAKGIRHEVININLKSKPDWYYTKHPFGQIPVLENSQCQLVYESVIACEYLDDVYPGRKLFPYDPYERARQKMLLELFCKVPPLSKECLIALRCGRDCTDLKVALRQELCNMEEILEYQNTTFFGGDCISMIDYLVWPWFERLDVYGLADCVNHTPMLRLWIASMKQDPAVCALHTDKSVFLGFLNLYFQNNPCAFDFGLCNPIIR
Method: as §1, with “murine” for “human”, “(IkappaB kinase gamma).” for “(I-κB kinase-γ/NF-κB essential modulator (NEMO)).”, “μM” for “μM of”

[5] = 1 µM, room temperature, versus IKK-expressing control cells
[6] = 10 µM (highest test concentration), control and GST-Omega-2-expressing cells

CC(C)(O)c1coc(S(=O)(=O)NC(=O)Nc2c3c(cc4c2CCC4)CCC3)c1 [Compound 4, 1-(1,2,3,5,6,7-Hexahydro-s-indacen-4-yl)-3-[4-(1-hydroxy-1-methylethyl)-furan-2-sulfonyl]-urea]
competition with binding of GST-Omega-2 to the diarylsulfonylurea affinity column [1]: competed with the specific binding of GST-Omega-2 to the diarylsulfonylurea affinity column
inhibition of incorporation of [14C]Compound 2 into GST-Omega-2 ([2]; 100 µM test compound): 63%
inhibition of incorporation of [14C]Compound 2 into GST-Omega-2 ([2]; 200 µM test compound): 73%
inhibition of incorporation of [14C]Compound 2 into GST-Omega-2 ([2]; 400 µM test compound): 84%

O=C(Nc1c2c(cc3c1CCC3)CCC2)NS(=O)(=O)c1cc(C2CO2)ccc1F (centres unmarked) [[^14C]Compound 2]
polypeptides labeled in infected cells [3, 5]: only the polypeptide migrating as GST-Omega-2 appeared labeled
polypeptides labeled in infected cells [3, 6]: appeared to incorporate into several polypeptides
incorporation of radioactivity into anti-flag immunoprecipitated GST-Omega-2 ([3]; 0.01 to 10 μM): dose-dependent increase in the incorporation of radioactivity into the immunoprecipitated protein
polypeptides labeled in infected cells [4, 5]: only the polypeptide migrating as GST-Omega-2 appeared labeled
polypeptides labeled in infected cells [4, 6]: appeared to incorporate into several polypeptides
incorporation of radioactivity into anti-flag immunoprecipitated GST-Omega-2 ([4]; 0.01 to 10 μM): dose-dependent increase in the incorporation of radioactivity into the immunoprecipitated protein

O=C(Nc1c2c(cc3c1CCC3)CCC2)NS(=O)(=O)c1cc(C2CO2)ccc1F (centres unmarked) [Compound 2, 1-(1,2,3,5,6,7-Hexahydro-s-indacen-4-yl)-3-[2-fluoro-5-oxiranylbenzenesulfonyl]-urea]
inhibition of incorporation of [14C]Compound 2 into GST-Omega-2 ([2]; 10 µM unlabeled compound): 90%
